Results published in PMC12828148, “Engineered cyclic peptide targeting ITGA5 disrupts tumor–stroma interaction to overcome desmoplasia and resistance in pancreatic ductal adenocarcinoma” (Acta Pharmaceutica Sinica. B, 2025).
Ends that are not written are not given here.

Columns and labels:
[1] = system: PANC-1 homospheroids / PANC-1 + PSC heterospheroids; experiment: 3D spheroid growth and ATP viability, PANC-1 model; format: cell-based; settings: PANC-1 homo- and PANC-1 + PSC hetero-spheroids, treated Days 3 and 6, size Days 3, 6, 9, n = 20
Experimental: Homo-spheroids containing hPSCs, PANC-1, or MIA PaCa-2, and hetero-spheroids containing 1:1 combination of hPSCs and PANC-1/MIA PaCa-2 were generated in a 96-well round bottom plates precoated with 1% Pluronic F-127 (Sigma–Aldrich). The self-assembled spheroids were exposed to cyAV3.3, gemcitabine, or both after 3 days and 6 days. Before each treatment, images of spheroids were made using inverted microscope. The diameters of spheroids were measured digitally using ImageJ software. After 9 days, spheroids were moved from the wells to a fresh 96-well plate. CellTiter-Glo 3D reagent (Promega, WI, USA) was added to each well and the luminescence signal was measured after 30 min using Varioskan LUX bioluminescent reader (Thermo Scientific) to assess the viability.

[2] = system: PANC-1 + PSC and MIA PaCa-2 + PSC co-injection xenograft tumors; settings: PANC-1 + PSC and MIA PaCa-2 + PSC co-injection xenografts, i.p. treatment, n = 4 per group per tumor type
Experimental: Six-week-old male CB17 SCID mice (Janvier Labs, Le Genest-Saint-Isle, France) were subcutaneously injected with a 2:1 mixture of 4 × 10^6 human PSCs and 2 × 10^6 PANC-1 or MIA PaCa-2 cells. Tumor growth was assessed twice a week. Tumor-bearing mice (±100 mm^3) were treated with phosphate buffered saline (PBS), cyAV3.3, gemcitabine, or combination of gemcitabine and cyAV3.3 intraperitoneally (i.p). Animals were euthanized, tumors and other organs were harvested and embedded in Cryomatrix (Thermo Scientific) before being snap frozen in cold 2-methyl butane (Thermo Scientific) and stored at −80 °C until analyses. […]
Immunohistochemical staining of mouse tumors
Tumors were cut into 7 μm thick sections and mounted on glass slides using Cryotome FSE (Thermo Scientific), dried, and fixed in acetone for 15 min. Tumor sections were rehydrated in PBS for 10 min then incubated with primary antibody diluted in PBS for 1 hour at RT. Antibodies […]
Next, slides were washed 3 times with PBS before incubation with secondary fluorescence-labeled antibody diluted in PBS. After 30 min of incubation, slides were washed with PBS and shielded with a DAPI -containing mounting medium. Images were made using a Hamamatsu NanoZoomer Digital slide scanner 2.0HT (Hamamatsu Photonics, New Jersey, […]

[3] = system: KPC (LSL-Kras^G12D/+; LSL-Trp53^R172H/+; Pdx1-Cre) PDAC tumors; experiment: Efficacy in genetically engineered KPC mouse PDAC model; format: in vivo, mice; settings: isolated tumors, n = 6
Experimental: LSL-Kras^G12D/+; LSL-Trp53^R172H/+; Pdx1-Cre (KPC) mice were bred and maintained, on a mixed background, at the CRUK Scotland Institute. Mice were palpated until an abdominal tumor was detected (between 12 and 28 weeks of age) and were then imaged under anesthesia by 3D ultrasound imaging using the VisualSonics Vevo 3100 system with the MX550D transducer (FujiFilm). Following confirmation of PDAC of 3–6 mm, mice of both sexes were enrolled on treatment with cyAV3.3 25 mg/kg i.p. b.i.w. and gemcitabine (100 mg/kg i.p. b.i.w., n = 6). No mice were excluded from the study. Mice treated with gemcitabine alone were used as control group (n = 6). Follow-up imaging to monitor tumor volume was performed weekly until endpoint was reached (moderate symptoms: abdominal distension, loss of body conditioning, jaundice, hunching, or reduced movement). Upon post-mortem, gross pathology was examined and PDAC and organs harvested and fixed in 10% neutral buffered formalin prior to paraffin embedding and sectioning for histological and IHC analysis. Kaplan–Meier and Log-Rank analysis was used for statistical assessment of survival. Analysis of ultrasound images was performed by researchers blinded to treatment arm using VisualSonics VevoLab software (version 3.1.1). In 3D mode, stacked images of the tumor were imported, and tumor border annotated, allowing a 3D volume analysis.

hPSCs = experiment: Cell viability, Alamar blue assay; format: cell-based, human
Experimental: We investigated the inhibitory effect of both cyclic and linear peptides on PSC activation and signaling. To achieve this, PSCs were seeded and treated with TGF-β and peptides for 48 h (protein expression) or 24 h (gene expression). We also tested the effect of the peptide on the cell viability using Alamar blue assay and found no toxicity (Supporting Information Fig. S3A). […] To quantitate that, we performed Western blot analysis and confirmed the observed effect via immunostaining (Fig. 2B and C; Fig. S3B). The details of the antibodies used can be found in Supporting Information Table S2. […] After obtaining these effects, we focused on cyAV3.3 and examined its inhibitory effects on TGF-β1-stimulated PSCs using qPCR and an RT[2] profiler PCR array for ECM and adhesion receptors (Fig. 2D). […] The details of primers for all genes can be found in Supporting Information Table S3. […] In contrast, cyAV3.3 induced the gene expression of ECM-degrading proteins such as MMP10 and ADAMTS-13 (Supporting Information Fig. S4).

[4] = system: hPSC activated with TGF-β; experiment: Inhibition of TGF-β-induced PSC activation (immunocytochemical staining, Western blot); format: cell-based, human; settings: 5 ng/mL TGF-β, 48 h, peptides at 20 and 50 μmol/L, immunostaining and Western blot
Experimental: secondary peroxidase labeled antibody was added and incubated for 1 h at RT. The HRP signal was developed using standard chemiluminescence kit and the signal was measured.
To evaluate the stability, 20 µmol/L peptide was incubated in 50% human plasma at biological temperature 37 °C for 1, 2, and 24 h. After incubation, plasma was precipitated by adding equal volume of 4% trichloroacetic acid (TCA) and rested on ice for 10 min. As control (or 0h), precipitation was performed immediately after mixing the peptide and plasma. Supernatant was collected after centrifugation at 13,300 × g and assessed using reversed phase high performance liquid chromatography (HPLC) with 5%, 95%, and 99.9% acetonitrile in de-gassed water with 0.1% trifluoroacetic acid as eluents. The remaining peptide was analyzed at a wavelength 280 nm.
Quantitative real-time PCR
To examine the effect of peptides on the gene expression of hPSC activation markers, cells were seeded into a 12 well plate at a seeding density of 50,000 cells/well. After overnight incubation, cells were starved for 24 h, then treated with human recombinant 5 ng/mL TGF-β (Peprotech, Hamburg, Germany) and […] peptide. After 24 h of the incubation, cells were lysed and total RNA was isolated using GenElute™ Mammalian Total RNA Miniprep Kit (Sigma–Aldrich) and the RNA concentration was measured using a NanoDrop® ND-1000 Spectrophotometer (Thermo Scientific, Waltham, USA). cDNA was synthesized with iScript™ cDNA Synthesis Kit (BioRad, Veenendaal, The Netherlands), and 10 ng cDNA was used for each PCR reaction. […] Quantitative real time PCR was performed with 2× SensiMix SYBR and Fluoroscein Kit (Bioline GmbH, Luckenwalde, Germany) using a BioRad CFX384 Real-Time PCR detection system (BioRad). […]
To evaluate the effect of peptides on the protein expression of hPSC activation markers, hPSCs were seeded into a 12 well plate at seeding density 50,000 cells/well. […] Proteins were detected with […]
medium. […] Images were analyzed using […]
secondary fluorescence-labeled antibody diluted in PBS. […]

TGF-β treated PSCs = experiment: Cell adhesion competition study (PSC attachment to FN-coated plate, crystal violet); format: cell-based, human; settings: 50 μmol/L peptide, 30 min pre-incubation 37 °C, 1 h attachment, crystal violet absorbance 600 nm, n = 3
Experimental: To analyze the interaction of PSC and FN, a 96 suspension well plate was coated with 100 μL FN (Advanced Biomatrix, Carlsbad, CA, USA) at 1 μg/mL by overnight incubation at 4 °C. Next, the plate was washed with DPBS (Lonza) and blocked with 5% bovine serum albumin (BSA) in DPBS for at least 1 h at RT. In the meantime, a cell suspension of 200,000 cells/mL of TGF-β treated PSCs in DPBS with 2 mmol/L Ca^2+ and 2 mmol/L Mg^2+ was treated with 50 μmol/L AV3.3 or cyAV3.3 and incubated for 30 min at 37 °C. After washing the plate with DPBS, 100 μL cell suspension was added to each well and then set to rest for 1 h at RT. The plate was then washed with DPBS to remove unattached cells. […] Next, cells were stained with 0.1% (w/v) crystal violet (Sigma) in 25% methanol at RT. After 20 min, cells were washed with water and lysed with 0.5% (w/v) SDS. The degree of cell attachment was measured by the absorbance of the crystal violet at 600 nm using Tecan Infinite M200 plate reader (Tecan, Mannendorf, Switzerland). In other plate, cells were washed with DPBS after fixation and then stained with DAPI. Images were developed using EVOS fluorescence microscope (Thermo Scientific).

Nc1ccn([C@@H]2O[C@H](CO)[C@@H](O)C2(F)F)c(=O)n1 [gemcitabine]
spheroid growth [1]: reduced the growth of both homo- and hetero-spheroids | reduction of tumor size / tumor growth [2]: 60% | collagen deposition (Sirius red) in KPC tumors [3]: significantly induced collagen deposition

RYYRATY [AV3.3]
effect on cell viability (hPSCs): no toxicity | inhibition of PSC activation by TGF-β1 (expression of α-SMA and collagen-1) [4]: inhibited the activation of PSCs

cyclo(GYYTRRAYK) [scr, scrambled cyclic peptide control, reference compound]
blocking of the binding of PSC to FN (TGF-β treated PSCs): did not show any blocking
